Test results reported in patent US7208450B2, “Pesticidal (dihalopropenyl) phenylalkyl substituted benzoxazole and benzothiazole derivatives” (Bayer CropScience AG, priority 2003, dated 2007).

Tests used:
tobacco budworm = assay: foliar treated test against tobacco budworm on chick pea plants; type: in vivo, Heliothis virescens; details: sprayed chick pea foliage, 96 hour exposure, dead plus moribund insects
Experimental: Certain compounds of formula I were tested against tobacco budworm on plant foliage. The foliar treated test against tobacco budworm were conducted in the following manner:
Nine-to-ten day-old chick pea plants (Cicer arietinum) were sprayed at 15 psi to runoff on both upper and lower leaf surfaces with solutions of test compound to provide application rates as high as 1000 ppm of test chemical. The solvent used to prepare the solutions of test compound was 10% acetone or methanol (v/v) and 0.1% of the surfactant octylphenoxypolyethoxyethanol in distilled water. Four replicates, each containing one chick pea plant, for each rate of application of test compound were sprayed. The treated plants were transferred to a hood where they were kept until the spray had dried.
The four chick pea plants for each replicate treated with test compound as described above were removed from their pots by cutting the stems just above the soil line. The excised leaves and stems from the four plants in each replicate were placed in individual 237 mL (8-ounce) paper cups, which contained a moistened filter paper. Five second-instar tobacco budworm (7 days old) were counted into each cup, taking care not to cause injury. An opaque plastic lid was placed on each cup, which was then held in a growth chamber for a 96 hour exposure period at 25° C. 50% relative humidity and photo-period of 12 hours light and 12 hours dark. At the end of the 96 hour exposure period the cups were opened, and the numbers of dead, moribund, and live insects were counted. Using the insect counts, the efficacy of the test compound was expressed in percent control. Percent control is derived from the total number of dead insects (TD) plus the total number of moribund insects (TM) as compared to the total number of insects (TI) in the test:
The condition of the test plants was also observed for phytotoxicity and for reduction of feeding damage as compared to an untreated control.

[1] = tested on: tobacco budworm (Heliothis virescens [Fabricius]); assay: surface-treated diet test against tobacco budworm; type: in vivo; details: 0.25 millimolar on surface of diet, second instar larvae, five-day exposure; for Percent Growth Inhibition: insect weight relative to untreated controls
Text: The test compounds of formula I are identified by numbers that correspond to those in Table 1.

| SMILES | Percent Control of Tobacco Budworm in a Foliar Test (tobacco budworm; 10 ppm) | Percent Control of Tobacco Budworm in a Foliar Test (tobacco budworm; 30 ppm) | Percent Mortality [1] | Percent Growth Inhibition [1] |
| --- | --- | --- | --- | --- |
| CC1(C)Oc2ccc(OCCCCOc3c(Cl)cc(OCC=C(Cl)Cl)cc3Cl)cc2O1 [Compound 4] | 15% | 55% |  |  |
| FC(F)(F)c1nc2ccc(OCCCOc3c(Cl)cc(OCC=C(Cl)Cl)cc3Cl)cc2o1 [Compound 3, 5-(3,3-dichloroprop-2-enyloxy)-1,3dichloro-2-{3-[2-(trifluoromethyl)benzoxazol-6-yloxy]propoxy}benzene] | 100% | 100% | 100% | 100% |
| FC(F)(F)c1nc2ccc(OCCCCOc3c(Cl)cc(OCC=C(Cl)Cl)cc3Cl)cc2o1 [Compound 6, 5-(3,3-dichloroprop-2-enyloxy)-1,3-dichloro-2-{4-[2-(trifluoromethyl)benzoxazol-6-yloxy]butoxy}benzene] | 70% | 95% | 100% | 100% |
| Cc1nc2cc(OCCCCCOc3c(Cl)cc(OCC=C(Cl)Cl)cc3Cl)ccc2s1 [Compound 12, 5-(3,3-dichloroprop-2-enyloxy)-1,3-dichloro-2-[5-(2-methylbenzothiazol-5-yloxy)pentyloxy]benzene] | 15% |  | 100% | 100% |
